Experimental data as given in patent publication US8883746B2, “α-galactosylceramide derivatives, pharmaceutically acceptable salts thereof, preparation method and pharmaceutical composition for the immune adjuvant containing the same as an active ingredient” (SNU R&DB Foundation, priority 2006, dated 2014).

How the values were obtained:
[1] = system: DN32.D3 NKT hybridoma cells; test: Stimulatory activity for NKT hybridoma cells (IL-2 secretion, ELISA); format: cell-based, mouse; settings: for IL-2 production compared to α-GalCer: mouse CD1d-bearing RBL cells loaded 4 hrs, co-incubated with DN32.D3 for 16 hrs, FIG. 1; for Stimulatory effect (IL-2) compared to α-GalCer: low concentration (32 ng/mL)
Description: Determination of Stimulatory Activity for NKT Hybridoma Cell (Zhou et al., Science, 306:1786-1789, 2004)
Mouse CD1d-bearing rat basophilic leukemia (RBL) cells were incubated with various concentrations of α-GalCer or the α-GalCer derivatives prepared in Examples for 4 hrs. After removing free glycolipids by washing with PBS (phosphate-buffer saline) three times, RBL cells were incubated with DN32.D3 NKT hybridoma cells for 16 hrs. IL-2 secretion levels in the supernatant were determined through ELISA (Enzyme-Linked Immunosorbent Assay).

[2] = system: Splenocytes from naïve C57BL/6 mice; test: Cytokine levels (IFN-γ, IL-4) produced by mouse splenocytes, ELISA; format: cell-based; settings: 72 hrs; for IL-4 secretion compared to α-GalCer: high concentrations (125 ng/ml), FIG. 3(a); for IL-4 production compared with α-GalCer: FIG. 3(b) (2 ng/ml)
Description: Evaluation of Cytokine Levels Produced by Mouse Splenocyte
Splenocytes from naïve C57BL/6 mice were incubated with various concentrations of α-GalCer or α-GalCer derivatives for 72 hrs. IFN-γ and IL-4 secretion levels in the supernatant were determined through ELISA.

NKT cells = settings: literature (Goff et al., 2004); cited from earlier work
naïve C57BL/6 mice = test: IFN-γ and IL-4 production level in vivo (serum, ELISA); settings: 1 μg/mouse intravenously
Description: Examination of IFN-γ and IL-4 Production Level In Vivo
α-GalCer or the α-GalCer derivatives (1 μg/mouse) were intravenously injected into naïve C57BL/6 mice. The serum concentrations of IFN-γ and IL-4 at each time point were determined through ELISA.

Question: For `CCCCCCCCCCCCCC[C@@H](O)[C@@H](O)[C@H](CO[C@H]1OC(CO)[C@H](O)[C@H](O)[C@H]1O)n1cc(CCCCCCCCc2ccccc2)nn1` (stereo partly drawn) [Example 9, (2S,3R,4S,5R)-2-((2S,3S,4R)-3,4-dihydroxy-2-(4-(8-phenyloctyl)-1H-1,2,3-triazol-1-yl)octadecyloxy)-6-(hydroxymethyl)-tetrahydro-2H-pyrane-3,4,5-triol], which “IL-2 production compared to α-GalCer” value [1] is on record?
Answer: ineffective

Question: With `CCCCCCCCCCCCCCCCCCCCCCCCc1cn([C@@H](CO[C@H]2OC(CO)[C@H](O)[C@H](O)[C@H]2O)[C@H](O)[C@H](O)CCCCCCCCCCCCCC)nn1` (stereo partly drawn) [Example 5, (2S,3R,4S,5R)-2-((2S,3S,4R)-3,4-dihydroxy-2-(4-tetracosyl-1H-1,2,3-triazol-1-yl)octadecyloxy)-6-(hydroxymethyl)-tetrahydro-2H-pyrane-3,4,5-triol] as the molecule, how does the melting point read?
Answer: 167 to 169 °C

Question: What about the “Stimulatory effect (IL-2) compared to α-GalCer” value [1] of the same molecule?
Answer: comparable stimulatory effects to α-GalCer

Question: And the “IL-4 secretion compared to α-GalCer” value [2]?
Answer: equivalent or greater IL-4 secretion than did α-GalCer

Question: With `CCCCCCCCCCCCCC[C@@H](O)[C@@H](O)[C@H](CO[C@H]1O[C@H](CO)[C@H](O)[C@H](O)[C@H]1O)NC(=O)CCCCCCC` [PBS-25] as the molecule, how does the “Secretion of Th2-cytokines compared to α-GalCer” value (NKT cells) read?
Answer: greater amount of Th2-cytokines, compared to α-GalCer

Question: With `CCCCCCCCCCCCCC[C@@H](O)[C@@H](O)[C@H](CO[C@H]1OC(CO)[C@H](O)[C@H](O)[C@H]1O)n1cc(CCCCCCc2ccccc2)nn1` (stereo partly drawn) [Example 7, (2S,3R,4S,5R)-2-((2S,3S,4R)-3,4-dihydroxy-2-(4-(6-phenylhexyl)-1H-1,2,3-triazol-1-yl)octadecyloxy)-6-(hydroxymethyl)-tetrahydro-2H-pyrane-3,4,5-triol] as the molecule, how does the “IL-2 production compared to α-GalCer” value [1] read?
Answer: ineffective

Question: For `CCCCCCCCCCCCCC[C@@H](O)[C@@H](O)[C@H](CO[C@H]1OC(CO)[C@H](O)[C@H](O)[C@H]1O)NC(=O)CCCCCCCCCCCN` (stereo partly drawn) [Example 11, 12-amino-N-((2S,3S,4R)-3,4-dihydroxy-1-((2S,3R,4S,5R)-3,4,5-trihydroxy-6-(hydroxymethyl)-tetrahydro-2H-pyran-2-yloxy)octadecan-2-yl)dodecanamide], which “Stimulatory effect (IL-2) compared to α-GalCer” value [1] is on record?
Answer: comparable stimulatory effects to α-GalCer

Question: What about the “IL-4 production compared with α-GalCer” value [2] of the same molecule?
Answer: more IL-4 production compared with α-GalCer

Question: With `CCCCCCCCCCCCCCCCCCCCCCCCCC(=O)N[C@@H](CO[C@H]1O[C@H](CO)[C@H](O)[C@H](O)[C@H]1O)[C@H](O)[C@H](O)CCCCCCCCCCCCCC` [α-GalCer, α-Galactosylceramide] as the molecule, how does the “Time of peak of serum IFN-γ levels after administration” value (naïve C57BL/6 mice) read?
Answer: 12 h

Question: What about the “Time of rapid increase of serum IL-4 levels after administration” value (naïve C57BL/6 mice) of the same molecule?
Answer: ≤ 2 h

Question: Which results are given for `CCCCCCCCCCCCCC[C@@H](O)[C@@H](O)[C@H](CO[C@H]1OC(CO)[C@H](O)[C@H](O)[C@H]1O)n1cc(CCCCCCC)nn1` (stereo partly drawn) [Example 2, (2S,3R,4S,5R)-2-((2S,3S,4R)-2-(4-heptyl-1H-1,2,3-triazol-1-yl)-3,4-dihydroxyoctadecyloxy)-6-(hydroxymethyl)-tetrahydro-2H-pyrane-3,4,5-triol]?
Answer: IL-2 production compared to α-GalCer [1]: ineffective; IL-4 secretion compared to α-GalCer [2]: equivalent or greater IL-4 secretion than did α-GalCer

Question: Which “Stimulatory effect (IL-2) compared to α-GalCer” value [1] does the source give for `CCCCCCCCCCCCCC[C@@H](O)[C@@H](O)[C@H](CO[C@H]1OC(CO)[C@H](O)[C@H](O)[C@H]1O)NC(=O)CCCCCCCCCCO` (stereo partly drawn) [Example 12, N-((2S,3S,4R)-3,4-dihydroxy-1-((2S,3R,4S,5R)-3,4,5-trihydroxy-6-(hydroxymethyl)-tetrahydro-2H-pyran-2-yloxy)octadecan-2-yl)-11-hydroxyundecanamide] here?
Answer: comparable stimulatory effects to α-GalCer

Question: With `CCCCCCCCCCCCCC[C@@H](O)[C@@H](O)[C@H](CO[C@H]1OC(CO)[C@H](O)[C@H](O)[C@H]1O)n1cc(CCCCCC)nn1` (stereo partly drawn) [Example 1, (2S,3R,4S,5R)-2-((2S,3S,4R)-2-(4-hexyl-1H-1,2,3-triazol-1-yl)-3,4-dihydroxyoctadecyloxy)-6-(hydroxymethyl)-tetrahydro-2H-pyrane-3,4,5-triol] as the molecule, how does the “IL-2 production compared to α-GalCer” value [1] read?
Answer: ineffective

Question: For `CCCCCCCCCCCCCC[C@@H](O)[C@@H](O)[C@H](CO[C@H]1OC(CO)[C@H](O)[C@H](O)[C@H]1O)NC(=O)CCCCCCCCCCCO` (stereo partly drawn) [Example 13, N-((2S,3S,4R)-3,4-dihydroxy-1-((2S,3R,4S,5R)-3,4,5-trihydroxy-6-(hydroxymethyl)-tetrahydro-2H-pyran-2-yloxy)octadecan-2-yl)-12-hydroxydodecanamide], which “IL-4 production compared with α-GalCer” value [2] is on record?
Answer: more IL-4 production compared with α-GalCer

Question: What does the source list for `CCCCCCCCCCCCCCCCc1cn([C@@H](CO[C@H]2OC(CO)[C@H](O)[C@H](O)[C@H]2O)[C@H](O)[C@H](O)CCCCCCCCCCCCCC)nn1` (stereo partly drawn) [Example 3, (2S,3R,4S,5R)-2-((2S,3S,4R)-2-(4-hexadecyl-1H-1,2,3-triazol-1-yl)-3,4-dihydroxyoctadecyloxy)-6-(hydroxymethyl)-tetrahydro-2H-pyrane-3,4,5-triol]?
Answer: melting point: 162 to 164 °C; IL-2 production compared to α-GalCer [1]: not active in practice

Question: With `CCCCCCCCCCCCCC[C@@H](O)[C@@H](O)[C@H](CO[C@H]1OC(CO)[C@H](O)[C@H](O)[C@H]1O)NC(=O)CCCCCCCCCCN(CCCCCCC)CCCCCCC` (stereo partly drawn) [Example 16, 11-(diheptylamino)-N-((2S,3S,4R)-3,4-dihydroxy-1-((2S,3R,4S,5R)-3,4,5-trihydroxy-6-(hydroxymethyl)-tetrahydro-2H-pyran-2-yloxy)octadecan-2-yl)undecanamide] as the molecule, how does the “Stimulatory effect (IL-2) compared to α-GalCer” value [1] read?
Answer: comparable stimulatory effects to α-GalCer

Question: What about the “IL-4 production compared with α-GalCer” value [2] of the same molecule?
Answer: more IL-4 production compared with α-GalCer

Question: For `CCCCCCCCCCCCCCCCCCCCCCCc1cn([C@@H](CO[C@H]2OC(CO)[C@H](O)[C@H](O)[C@H]2O)[C@H](O)[C@H](O)CCCCCCCCCCCCCC)nn1` (stereo partly drawn) [Example 4, (2S,3R,4S,5R)-2-((2S,3S,4R)-3,4-dihydroxy-2-(4-tricosyl-1H-1,2,3-triazol-1-yl)octadecyloxy)-6-(hydroxymethyl)-tetranydro-2H-pyrane-3,4,5-triol], which “IL-4 secretion compared to α-GalCer” value [2] is on record?
Answer: equivalent or greater IL-4 secretion than did α-GalCer

Question: For `CCCCCCCCCCCCCCCCCCCCCCCCCc1cn([C@@H](CO[C@H]2OC(CO)[C@H](O)[C@H](O)[C@H]2O)[C@H](O)[C@H](O)CCCCCCCCCCCCCC)nn1` (stereo partly drawn) [Example 6, (2S,3R,4S,5R)-2-((2S,3S,4R)-3,4-dihydroxy-2-(4-pentacosyl-1H-1,2,3-triazol-1-yl)octadecyloxy)-6-(hydroxymethyl)-tetrahydro-2H-pyrane-3,4,5-triol], which melting point is on record?
Answer: 165 to 167 °C

Question: For `CCCCCCCCCCCCCC[C@@H](O)[C@@H](O)[C@H](CO[C@H]1OC(CO)[C@H](O)[C@H](O)[C@H]1O)n1cc(CCCCCCCc2ccccc2)nn1` (stereo partly drawn) [Example 8, (2S,3R,4S,5R)-2-((2S,3S,4R)-3,4-dihydroxy-2-(4-(7-phenylheptyl)-1H-1,2,3-triazol-1-yl)octadecyloxy)-6-(hydroxymethyl)-tetrahydro-2H-pyrane-3,4,5-triol], which “IL-2 production compared to α-GalCer” value [1] is on record?
Answer: ineffective
